{"source": "paper PMC2949076", "about": "(Journal of clinical immunology, 2010)", "key": {"[1]": {"test_system": "CD8+ T cells in PBMC", "type": "cell-based, human"}, "[2]": {"test_system": "CD8+ T cells in PBMC", "assay": "Granzyme B and perforin detection by flow cytometry", "type": "cell-based, human"}}, "note": "Where “and” joins values, the source holds several entries; their conditions need not be identical. Identical values can stand only once.", "data": [{"substance": "staphylococcal enterotoxin B [SEB]", "values": [{"measurement": "CD107a mobilization, monofunctional vs polyfunctional cells", "setting": "[1]", "value": "increases were observed"}, {"measurement": "IFN-γ-level change in polyfunctional cells", "setting": "[1]", "value": "increases in IFN-γ observed"}, {"measurement": "CD8+ T cells lacking granule proteins", "setting": "[2]", "value": "58% and 44.5–70.9%"}]}]}
